Data as given in patent US9526681B2, “Compositions and methods for treating dental caries” (Colgate-Palmolive Company, priority 2012, dated 2016).

Tested on: salivary sediment (oral cavity bacteria)
Assay: Ammonia production by salivary sediment incubated with sucrose (diagnostic ammonia assay kit)
Type: cell-based
Conditions: 0.1% sucrose, 37 degrees Celsius, 30 minutes; for ammonia production, Mean: mean of three trials
Protocol: In order to investigate the effects of arginine alone, mixtures of arginine and bisabolol and bisabolol alone, on the production of ammonia in the present or oral bacterium the following procedures are carried out. Stimulated whole saliva is collected on ice and centrifuged for 15 minutes at 4000 rpm to obtain a pellet and salivary supernatant. The pellet, which is termed the salivary sediment, contains a representative array of the oral microbes found in the oral cavity. This pellet is washed twice in cold filter sterilized deionized water by centrifugation for 10 minutes at 4000 rpm.
The salivary sediment is then diluted to 50% with cold filter sterilized deionized water. Stock solutions of 1% arginine and 1% sucrose in filter sterilized deionized water are made, and a stock solution of 1% bisabolol in ethanol is also made. Reaction mixtures tested contain 16.7% final concentration salivary sediment, 0.1% final concentration sucrose and 0.0871% final concentration arginine. The control reaction mixture contains only salivary sediment, sucrose and arginine in the salivary supernatant base. The test solutions have a final concentration of 0.05 and 0.1 bisabolol, respectively. The reaction mixtures are then incubated at 37 degrees Celsius for 30 minutes with mild agitation before determining ammonia production. A standard diagnostic ammonia assay kit is used to quantify ammonia produced.
Table 1 (below) describes the results of the procedures described above, wherein the ammonia production is measured in terms of nanomole per milligram (nm/mg).
Column A in Table 1 describes data collected for three trials of L-arginine (Control) reaction mixtures that contain salivary sediment and salivary supernatant with final concentrations of 0.1% sucrose and 0.0871% L-arginine. Column B in Table 1 describes data collected for three trials of 0.05% bisabolol plus arginine reaction mixtures that contain salivary sediment and salivary supernatant with final concentrations of 0.1% sucrose, 0.05% bisabolol and 0.0871% L-arginine. Column C in Table 1 describes data collected for three trials of 0.05% bisabolol reaction mixtures that contain salivary sediment and salivary supernatant with final concentrations of 0.1% sucrose and 0.05% bisabolol. Column D in Table 1 describes data collected for three trials of 0.1% bisabolol plus arginine reaction mixtures that contain salivary sediment and salivary supernatant with final concentrations of 0.1% sucrose, 0.1% Bisabolol and 0.0871% L-arginine. Column E in Table 1 describes data collected for three trials of 0.1% bisabolol reaction mixtures that contain salivary sediment and salivary supernatant with final concentrations of 0.1% sucrose and 0.1% bisabolol.

[1] = 0.0871% L-arginine, no bisabolol, 16.7% salivary sediment
[2] = 0.05% bisabolol (with 0.0871% L-arginine in the combination), salivary sediment
[3] = 0.1% bisabolol (with 0.0871% L-arginine in the combination), salivary sediment

SMILES | ammonia production, Trial 1 [1] [nm/mg] | ammonia production, Trial 2 [1] [nm/mg] | ammonia production, Trial 3 [1] [nm/mg] | ammonia production, Mean [1] [nm/mg] | ammonia production, Trial 1 [2] [nm/mg] | ammonia production, Trial 2 [2] [nm/mg] | ammonia production, Trial 3 [2] [nm/mg] | ammonia production, Trial 1 [3] [nm/mg] | ammonia production, Trial 2 [3] [nm/mg] | ammonia production, Trial 3 [3] [nm/mg] | ammonia production, Mean [2] [nm/mg] | ammonia production, Mean [3] [nm/mg]
N=C(N)NCCC[C@H](N)C(=O)O [Arginine, L-arginine, reference compound] | 1532.40 | 1799.88 | 986.31 | 1439.53 |  |  |  |  |  |  |  | 
CC(C)=CCC[C@](C)(O)C1CC=C(C)CC1 (stereo partly drawn) [Bisabolol, bisabolol] |  |  |  |  | 200.61 | 27.86 | 66.87 | 133.74 | 562.81 | 228.47 | 98.45 | 308.34
